Reference: the NIST ThermoML archive (doi:10.1021/je100598x)

Assay: cn = amount concentration of the nth substance listed, in mol/dm3
Details: 101 kPa, Liquid, Direct current cell with electrodes

CCCCCCCCCCCC[N+](CCCC)(CCCC)CCCC.[Br-] [dodecyltributylammonium bromide] + O
electrical conductivity [S/m]
Details | 288.15 K | 293.15 K | 298.15 K | 303.15 K | 308.15 K | 313.15 K | 318.15 K
c1 = 0.000658 | 0.005218 | 0.00579 | 0.00649 | 0.007326 | 0.00785 | 0.008542 | 0.00923
c1 = 0.001299 | 0.009805 | 0.01101 | 0.01226 | 0.0138 | 0.01502 | 0.01631 | 0.0177
c1 = 0.001923 | 0.01419 | 0.01604 | 0.0179 | 0.0201 | 0.0218 | 0.0238 | 0.0258
c1 = 0.002532 | 0.01845 | 0.0208 | 0.0233 | 0.0262 | 0.0283 | 0.0309 | 0.0336
c1 = 0.003125 | 0.0226 | 0.0254 | 0.0287 | 0.0319 | 0.0346 | 0.0378 | 0.0412
c1 = 0.003704 | 0.0265 | 0.03 | 0.0335 | 0.0374 | 0.0407 | 0.0445 | 0.0484
c1 = 0.004268 | 0.0303 | 0.0341 | 0.0383 | 0.0427 | 0.0465 | 0.0509 | 0.0551
c1 = 0.004819 | 0.034 | 0.0384 | 0.0429 | 0.0476 | 0.0517 | 0.0566 | 0.0619
c1 = 0.005357 | 0.0377 | 0.0423 | 0.0472 | 0.052 | 0.0567 | 0.0619 | 0.0672
c1 = 0.005882 | 0.041 | 0.0459 | 0.0508 | 0.0554 | 0.0599 | 0.0658 | 0.0712
c1 = 0.006395 | 0.0441 | 0.0487 | 0.0532 | 0.0578 | 0.0629 | 0.069 | 0.0752
c1 = 0.006896 | 0.0466 | 0.0509 | 0.0556 | 0.0601 | 0.0658 | 0.072 | 0.0785
c1 = 0.007386 | 0.0485 | 0.0524 | 0.0575 | 0.0626 | 0.0678 | 0.0747 | 0.0817
c1 = 0.007865 | 0.05 | 0.0542 | 0.059 | 0.0647 | 0.0706 | 0.0773 | 0.0845
c1 = 0.008333 | 0.0513 | 0.0554 | 0.061 | 0.0666 | 0.0728 | 0.0798 | 0.0874
c1 = 0.008791 | 0.0523 | 0.0568 | 0.0622 | 0.0685 | 0.0749 | 0.0822 | 0.09
c1 = 0.009239 | 0.0537 | 0.0582 | 0.0641 | 0.0703 | 0.077 | 0.0845 | 0.0926
c1 = 0.009677 | 0.0548 | 0.0598 | 0.0652 | 0.0721 | 0.0789 | 0.0867 | 0.0952
c1 = 0.01011 | 0.0556 | 0.061 | 0.0671 | 0.0737 | 0.0804 | 0.0889 | 0.0976
c1 = 0.01053 | 0.0572 | 0.0623 | 0.0686 | 0.0757 | 0.0829 | 0.0913 | 0.1003
c1 = 0.01094 | 0.0583 | 0.0636 | 0.0701 | 0.0774 | 0.0849 | 0.0935 | 0.1028
c1 = 0.01134 | 0.0594 | 0.0649 | 0.0716 | 0.0791 | 0.0868 | 0.0957 | 0.105
c1 = 0.01174 | 0.0605 | 0.0661 | 0.073 | 0.0807 | 0.0887 | 0.0978 | 0.108
c1 = 0.01212 | 0.0615 | 0.0673 | 0.0744 | 0.0824 | 0.0905 | 0.0998 | 0.11
c1 = 0.0125 | 0.0626 | 0.0685 | 0.0758 | 0.084 | 0.0923 | 0.1019 | 0.1122
